Data taken from ChEMBL document CHEMBL1201862, “PubChem BioAssay data set” (2004).
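Test compounds were applied to cells in 96-well plates for 48 hours at 5 doses. GI50 marks 50% less growth.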 The source made the active and inactive calls. Rule as the data show it: active = GI50 up to about 1.1 µM and inactive = higher.

Assays:
Assay in all cases: inhibition of tumour cell growth, NCI panel, 48 h
786-0 = system: 786-0
OVCAR-3 = system: OVCAR-3
IGROV-1 = system: IGROV-1
SK-MEL-2 = system: SK-MEL-2
A549 = system: A549
SNB-19 = system: SNB-19
SR = system: SR
HT-29 = system: HT-29
OVCAR-8 = system: OVCAR-8
NCI-H460 = system: NCI-H460
SN12C = system: SN12C
SF-268 = system: SF-268
SF-295 = system: SF-295
SK-MEL-28 = system: SK-MEL-28
RXF 393 = system: RXF 393
KM12 = system: KM12
SW-620 = system: SW-620
HOP-62 = system: HOP-62
HL-60 = system: HL-60
OVCAR-5 = system: OVCAR-5

| Structure (SMILES) | GI50 (786-0) | GI50 (OVCAR-3) | GI50 (IGROV-1) | GI50 (SK-MEL-2) | GI50 (A549) | GI50 (SNB-19) | GI50 (SR) | GI50 (HT-29) | GI50 (OVCAR-8) | GI50 (NCI-H460) | GI50 (SN12C) | GI50 (SF-268) | GI50 (SF-295) | GI50 (SK-MEL-28) | GI50 (RXF 393) | GI50 (KM12) | GI50 (SW-620) | GI50 (HOP-62) | GI50 (HL-60) | GI50 (OVCAR-5) |
| --- | --- | --- | --- | --- | --- | --- | --- | --- | --- | --- | --- | --- | --- | --- | --- | --- | --- | --- | --- | --- |
| C/C(=N/O)c1cccc(Nc2nc3ccccc3c3[nH]c4ccccc4c23)c1 | 2.3 µM (inactive) | 2.22 µM (inactive) | 3.19 µM (inactive) | 2.25 µM (inactive) | 2.22 µM (inactive) | 4.08 µM (inactive) | 1.15 µM (inactive) | 1.57 µM (inactive) | 2.65 µM (inactive) | 1.64 µM (inactive) | 3.4 µM (inactive) | 1.87 µM (inactive) | 1.98 µM (inactive) | 3.6 µM (inactive) | 1.89 µM (inactive) | 2.58 µM (inactive) | 1.63 µM (inactive) | 2.29 µM (inactive) | 3.08 µM (inactive) | 2.65 µM (inactive) |
| COc1cc2cc(C(=O)N3C[C@@H](CCl)c4c3cc(N)c3ccccc43)[nH]c2c(OC)c1OC | 0.103 µM (active) | 0.00385 µM (active) | 0.00611 µM (active) | < 0.01 µM (active) | 0.00546 µM (active) | 0.00665 µM (active) | 0.000455 µM (active) | 0.0735 µM (active) | 0.00451 µM (active) | 0.00183 µM (active) | 0.00914 µM (active) | 0.119 µM (active) | < 0.01 µM (active) | < 0.01 µM (active) | 0.00157 µM (active) | 0.00216 µM (active) | 0.00201 µM (active) | 0.00755 µM (active) | 0.00318 µM (active) | < 0.01 µM (active) |
| CC1(CO)OC(n2cnc3cncnc32)CC1O (stereo not given) | > 100 µM (inactive) | > 100 µM (inactive) | > 100 µM (inactive) | > 100 µM (inactive) | > 100 µM (inactive) | > 100 µM (inactive) | > 100 µM (inactive) | > 100 µM (inactive) | > 100 µM (inactive) | > 100 µM (inactive) | > 100 µM (inactive) | > 100 µM (inactive) | > 100 µM (inactive) | > 100 µM (inactive) | > 100 µM (inactive) | > 100 µM (inactive) | > 100 µM (inactive) | > 100 µM (inactive) | > 100 µM (inactive) | > 100 µM (inactive) |
| CN1CCC2(CC1)SC[C@H]1C(=O)N(c3ccc(Cl)cc3)C(=O)N12 | > 100 µM (inactive) | > 100 µM (inactive) | > 100 µM (inactive) | > 100 µM (inactive) | > 100 µM (inactive) | > 100 µM (inactive) | > 100 µM (inactive) | > 100 µM (inactive) | > 100 µM (inactive) | > 100 µM (inactive) | > 100 µM (inactive) | > 100 µM (inactive) | > 100 µM (inactive) | > 100 µM (inactive) | > 100 µM (inactive) | > 100 µM (inactive) | > 100 µM (inactive) | > 100 µM (inactive) | > 100 µM (inactive) | > 100 µM (inactive) |
